According to patent US6911446B2, “Methods of modulating serine/threonine protein kinase function with quinazoline-based compounds” (Sugen, Inc., priority 1997, dated 2005):
pIC50: −log10 of the molar value.

Tests used:
[1] = target: T1, EGF Receptor (Homo sapiens, UniProt P00533); experiment: EGF Receptor kinase activity in whole cells (EGFR-NIH3T3 assay, EGFR ELISA); format: cell-based; conditions: Table 5, EGFR ELISA assay in whole cells (EGFR-NIH3T3); read-out: IC50 A549
T1 construct: expressed in transfected cells; host or cells: NIH3T3 (EGFR-NIH3T3)
Description: EGF Receptor kinase activity (EGFR-NIH3T3 assay) in whole cells was measured as described in detail in PCT Publication WO9640116, filed Jun. 5, 1996, by Tang et al., and entitled “Indolinone Compounds for the Treatment of Disease,” incorporated herein by reference in its entirety, including any drawings.

[2] = test system: A549 human lung carcinoma cells; experiment: Growth of A549 cells (SRB); format: cell-based
Description: The following assay measures growth rates for A549 cells. The purpose of the assay is to determine the effects of compounds on the growth of A549 human lung carcinoma cells. A549 cells are readily accessible from commercial sources, such as ATCC (CCL185).
• 96-well flat bottom sterile plates • 96-well round bottom sterile plates • sterile 25 mL or 100 mL reservoir • pipets, multi-channel pipetman • sterile pipet tips • sterile 15 mL and 50 mL tubes Reagents: • 0.4% SRB in 1% acetic acid • 10 mM Tris base • 10% TCA • 1% acetic acid • sterile DMSO (Sigma) • compound in DMSO (100 mM or less stock solution) • Trypsin-EDTA (GIBCO BRL) Cell Line and Growth Medium: • A549 human lung carcinoma cells (ATCC CCL185) • 10% fetal calf serum in Ham's F12-K Protocol: Day 0: Cell Plating:
This part of assay is carried out in a laminar flow hood. • 1. Trypsinize cells. Transfer 200 μL of cell suspension to 10 mL of isotone. Count cells with a Coulter Counter. • 2. Dilute cells in growth medium to 20,000 cell/mL. Transfer 100 μL of cells to each well in a 96-well flat bottom plate to give 2000 cells/well. • 3. Use half of plate (4 rows) for each compound and quadruplicate wells for each compound concentration, and a set of 4 wells for medium control. • 4. Gently shake plates to allow for uniform attachment of the cells. • 5. Incubate the plates at 37° C. in a 10% CO2 incubator. Day 1: Addition of Compound:
This part of assay is carried out in a laminar flow hood. • 1. In a 96 well-round bottom plate, add 120 μL of growth medium containing 2×final %DMSO found in highest screening concentration of compound to columns 1 to 11. For example, if the highest screening concentration is 100 μM, and this is made from a 100 mM stock, 1×DMSO is 0.1%, so 2×DMSO is 0.2%. This plate is used to titrate out the compound, 4 rows per compound. • 2. In a sterile 15 mL tube, make a 2×solution of the highest screening concentration of compound in growth medium plus 2×DMSO. 1 mL per cell line is needed. The starting concentration of the compound is usually 100 μM but this concentration may vary depending upon the solubility of the compound. • 3. Transfer 240 μL of the 2×starting compound solution to quadruplicate wells in column 12 of the 96-well round bottom plate. Do 1:2 serial dilutions across the plate from right to left by transferring 120 μL from column 12 to column 11, column 11 to 10 and so on through column 2. Transfer 100 μL of compound dilutions, and 100 μL of medium in column 1, onto 100 μL medium on cells in corresponding wells of 96-well flat bottom plate. Total volume per well should be 200 μL. • 4. Return the plate to the incubator and incubate for 3 days. Day 5: Development of Assay
This part of assay is carried out on the bench. • 1. Aspirate or pour off medium. Add 200 μL cold 10% TCA to each well to fix cells. Incubate plate for at least 60 min. at 4° C. • 2. Discard TCA and rinse wells 5 times with tap water. Dry plates upside down on paper towels. • 3. Stain cells with 100 μL/well 0.4% SRB for 10 min. • 4. Pour off SRB and rinse wells 5 times with 1% acetic acid. Dry plates completely upside down on paper towels. • 5. Solubilize dye with 100 μL/well 10 mM Tris base for 5-10 min. on shaker. • 6. Read plates on Dynatech ELISA Plate Reader at 570 nm with reference at 630 nm.

T1 sequence (P00533 25-1210): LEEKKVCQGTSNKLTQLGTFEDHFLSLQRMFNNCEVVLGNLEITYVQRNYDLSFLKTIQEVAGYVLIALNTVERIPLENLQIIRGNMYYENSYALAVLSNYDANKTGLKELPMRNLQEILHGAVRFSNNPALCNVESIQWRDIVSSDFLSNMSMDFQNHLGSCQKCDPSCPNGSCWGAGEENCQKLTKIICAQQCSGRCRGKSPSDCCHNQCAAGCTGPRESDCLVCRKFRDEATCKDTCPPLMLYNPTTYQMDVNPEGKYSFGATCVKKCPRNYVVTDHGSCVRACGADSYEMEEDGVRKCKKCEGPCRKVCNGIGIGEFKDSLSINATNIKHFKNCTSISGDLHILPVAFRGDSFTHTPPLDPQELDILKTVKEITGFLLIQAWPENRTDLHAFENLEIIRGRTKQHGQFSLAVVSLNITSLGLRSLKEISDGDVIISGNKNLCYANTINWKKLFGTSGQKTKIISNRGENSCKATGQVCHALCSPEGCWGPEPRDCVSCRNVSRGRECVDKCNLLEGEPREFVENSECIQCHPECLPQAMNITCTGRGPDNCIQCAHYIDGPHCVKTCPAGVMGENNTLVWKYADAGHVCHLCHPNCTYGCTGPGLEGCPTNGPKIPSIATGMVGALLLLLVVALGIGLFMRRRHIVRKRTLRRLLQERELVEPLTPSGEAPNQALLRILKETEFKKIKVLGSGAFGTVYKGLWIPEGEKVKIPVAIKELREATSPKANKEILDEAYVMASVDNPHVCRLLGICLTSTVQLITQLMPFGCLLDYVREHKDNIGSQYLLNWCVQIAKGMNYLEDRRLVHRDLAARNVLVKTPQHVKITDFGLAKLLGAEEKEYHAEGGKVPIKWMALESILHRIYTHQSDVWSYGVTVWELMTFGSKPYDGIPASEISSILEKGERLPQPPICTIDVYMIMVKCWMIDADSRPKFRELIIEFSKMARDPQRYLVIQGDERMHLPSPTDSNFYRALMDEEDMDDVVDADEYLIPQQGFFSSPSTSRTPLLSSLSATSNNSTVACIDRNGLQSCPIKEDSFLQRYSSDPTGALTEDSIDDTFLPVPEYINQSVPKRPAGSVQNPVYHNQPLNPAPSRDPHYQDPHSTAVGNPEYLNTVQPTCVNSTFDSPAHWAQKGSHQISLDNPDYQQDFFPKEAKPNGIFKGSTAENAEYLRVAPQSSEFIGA

pIC50 [1]	pIC50 [2]	Compound
4.61	4.80	Nc1nc(N)c2c(Oc3ccccc3)cccc2n1 [Compound A-1, 2,4-Diamino-5-phenoxyquinazoline]
< 4.00	4.59	COc1ccccc1Oc1cccc2nc(N)nc(N)c12 [Compound A-22, 2,4-Diamino-5-(2-methoxyphenoxy)quinazoline]
4.76	4.74	COc1cccc(Oc2cccc3nc(N)nc(N)c23)c1 [Compound A-23, 2,4-Diamino-5-(3-methoxyphenoxy)quinazoline]
< 4.00	–	COc1ccc(Oc2cccc3nc(N)nc(N)c23)cc1 [Compound A-6, 2,4-Diamino-5-(4-methoxyphenoxy)quinazoline]

Continued, molecule first:

Compound	pIC50 [1]	pIC50 [2]
CC(C)(C)c1ccc(Oc2cccc3nc(N)nc(N)c23)cc1 [Compound A-8, 2,4-Diamino-5-(4-tert-butylphenoxy)quinazoline]	–	4.11
Nc1ncnc2cccc(Oc3ccc(OCc4ccccc4)cc3)c12 [Compound A-28, 4-Amino-5-(4-benzyloxyphenoxy)quinazoline]	4.12	4.49
Nc1nc(N)c2c(Oc3ccc(F)cc3)cccc2n1 [Compound A-7, 2,4-Diamino-5-(4-fluorophenoxy)quinazoline]	< 4.00	4.75
